Measured values taken from paper PMC9401487 (Clinical Cancer Research, 2021).
Where two headings read alike, the source gives them in different places.

What was measured:
patients = settings: cited from earlier work
[1] = tested on: LoVo colorectal cancer cell line; assay: LoVo growth inhibition, ceralasertib alone or with carboplatin; type: cell-based, human; settings: Homo sapiens, LoVo, read-out: GI50 (50% growth inhibition)

For `CNCc1ccc(-c2cc(-c3nc(-c4ccc(S(=O)(=O)C(C)C)cc4)cnc3N)on2)cc1` [berzosertib], the Tolerability (patients; 90 mg/m^2 + carboplatin AUC5) is listed as “tolerated”, the “Patients with grade 3/4 neutropenia” value (patients; 240 mg/m^2 + carboplatin AUC5, 3 patients) is listed as 3 patients and the Tolerability (patients; 240 mg/m^2 days 1 and 8 every 21 days + carboplatin AUC5 day 1) is listed as “not tolerated”. For the same molecule, the GI50 [1] was 90 nM.
